Test results: paper PMC6449863, “Rational Design of Antiangiogenic Helical Oligopeptides Targeting the Vascular Endothelial Growth Factor Receptors” (Frontiers in Chemistry, 2019)
Square brackets hold non-standard residues; d marks the D form. Peptide text beside a SMILES is read from it. Aib = CC(C)(N)C(=O)O

Experiments:
chymotrypsin = experiment: Resistance to proteolytic degradation, chymotrypsin; assay type: in vitro ADME; conditions: Tris·HCl 50 mM pH 7.8, 37°C, RP-HPLC C18 read-out
Description: (§1) The proteolytic stability of peptides 1, 5, and 6 was assessed against three enzymes: pronase, trypsin and chymotrypsin (Sigma-Aldrich). Each peptide was dissolved in the appropriate buffer [i.e., (2-amino-2-hydroxymethyl-propane-1,3-diol (Tris)·HCl 20 mM, containing 20 mM CaCl2 pH 7.6 for pronase; Tris·HCl 50 mM, pH 7.8 for trypsin and chymotrypsin). Then, it was incubated with and without the enzyme solution (1.25 μg of enzyme in […] buffer) at 37°C for 12 h. The mixture was analyzed by RP-HPLC (column: Phenomenex Jupiter 5 μ C18 300 Å) every ten minutes for the first hour, then every half hour. Gradients: 5–25%B in 10 min for peptide 1; 15–35%B in 10 min for peptide 5; 15–25%B in 10 min for peptide 6. Eluants: A, H2O:CH3CN 9/1 + 0.05% trifluoroacetic acid (TFA); B: CH3CN:H2O 9/1 + 0.05% TFA.

trypsin = experiment: Resistance to proteolytic degradation, trypsin; assay type: in vitro ADME; conditions: Tris·HCl 50 mM pH 7.8, 37°C, RP-HPLC C18 read-out
Description: as §1

[1] = biological target: T1, extracellular domain of VEGFR-1 (Homo sapiens, UniProt P17948); experiment: Chemiluminescent assay: inhibition of biotinylated VEGF165 binding to isolated VEGFR-1; conditions: peptide at 500 μM; chemiluminescence read-out
T1 construct: the extracellular domain of VEGFR-1; purchased R&D Systems
T1 sequence (P17948 27-758 limits assumed): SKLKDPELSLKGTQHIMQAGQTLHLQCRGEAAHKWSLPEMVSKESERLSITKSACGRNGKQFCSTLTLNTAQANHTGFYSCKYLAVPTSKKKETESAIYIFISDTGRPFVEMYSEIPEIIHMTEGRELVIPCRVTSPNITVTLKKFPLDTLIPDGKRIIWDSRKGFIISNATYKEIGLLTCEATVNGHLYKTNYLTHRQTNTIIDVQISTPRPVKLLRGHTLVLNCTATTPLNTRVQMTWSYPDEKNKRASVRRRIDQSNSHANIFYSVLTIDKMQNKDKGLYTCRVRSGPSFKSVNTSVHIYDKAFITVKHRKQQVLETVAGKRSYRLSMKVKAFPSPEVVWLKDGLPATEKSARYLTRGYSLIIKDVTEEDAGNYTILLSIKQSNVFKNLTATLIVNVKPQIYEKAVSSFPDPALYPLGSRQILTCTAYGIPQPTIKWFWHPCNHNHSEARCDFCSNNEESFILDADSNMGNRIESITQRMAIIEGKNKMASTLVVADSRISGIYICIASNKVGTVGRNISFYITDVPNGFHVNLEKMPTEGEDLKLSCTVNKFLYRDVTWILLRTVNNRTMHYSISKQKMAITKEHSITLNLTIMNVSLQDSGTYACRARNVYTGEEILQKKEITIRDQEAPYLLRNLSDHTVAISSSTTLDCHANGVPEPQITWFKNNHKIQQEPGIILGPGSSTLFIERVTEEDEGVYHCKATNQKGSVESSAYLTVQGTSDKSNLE
Description: A chemiluminescent assay to determine the inhibition of complex formation between VEGF-A (isoform VEGF165) and the extracellular domain of VEGFR-1 (Goncalves et al., [2007]; García-Aranda et al., [2013]) had been previously employed in our group (Zanella et al., [2015]). VEGF-C (from which analogue 1 was derived) is not selective for VEGFR-1 (Su et al., [2007]), but unfortunately the same assay protocol turned out to be ineffective with VEGFR-2, at least in our hands. The assay based on VEGFR-1 was therefore applied here as a very stringent test of the affinity of our peptides for VEGFRs, and to assess the different peptides comparatively. All peptides were able to inhibit complex formation (Table 3), although in the high micromolar range. […] Further studies were focused on analogues 5 and 6, considering also the higher stability of their secondary structure, which affects resistance to proteolytic degradation.
The chemiluminescent screening assay for the detection of VEGFR-1 ligands was accomplished according to the procedure described in the Supporting Information. […]
horseradish peroxidase diluted at 1:1000 in PBS containing 0.1% (v/v) Tween 20 and 0.3% (w/v) BSA were added per well. Af ter 1 h of incubation at r.t., the plate was washed f ive times with 150 μL of buffer A and 100 μL of SuperSignal W est Pico Chemiluminescent Substrate (Pierce, Rockford, IL, USA) were added. The remaining bt-VEGF165 was detected by chemiluminescence, which was quantif ied with a Synergy™ HT Multi -Detection Microplate Reader (BioTek Instruments, Inc.). The percentages of btVEGF165 displacement were calculated by the following formula: percentage of displacement = 100×[1−( S−NS) / (MS−NS)], where S is the signal measured, NS is the nonspecific binding signal and MS is the maximum binding signal observed with btVEGF165 without tested compounds. […]
loading: 0.5 mmol/g) were used.
Each coupling step consisted in:
1) activation of the Fmoc-protected amino acid;
2) addition of the activated amino acid to the resin at the synthesizer to start the coupling; 3) steps of capping, deprotection and washing.
To perform the automated SPPS, two solutions and two solvents were prepared: 25% Ac2O in DMF (v/v), 25% piperidine in DMF (v/v), methanol and DMF. W hile MeOH was used only as washing solvent, DMF was necessary either for washings and as solvent for the reactions of coupling, capping and deprotection. […]

pronase = experiment: Resistance to proteolytic degradation, pronase; assay type: in vitro ADME; conditions: Tris·HCl 20 mM with 20 mM CaCl2 pH 7.6, 37°C, RP-HPLC C18 read-out
Description: as §1

[2] = biological target: T1, extracellular domain of VEGFR-1; conditions: chemiluminescent VEGFR-1 ligand screening assay; ref Zanella et al., 2015; read-out: IC50 of unlabeled VEGF165 (reference compound); cited from earlier work
Description: The chemiluminescent screening assay for the detection of VEGFR-1 ligands was accomplished according to the procedure described in the Supporting Information.

Molecule	inhibition at 500 µM [1]	other results
Ac-IDNEWRKTQ-NH2 [Peptide 1, Ac-Ile-Asp-Asn-Glu-Trp-Arg -Lys-T hr -Gln-amide]	27 ± 1%	time within which peptide was degraded by chymotrypsin (chymotrypsin): ≤ 15 min; time within which peptide was degraded by trypsin (trypsin): ≤ 15 min; time within which peptide was degraded by pronase (pronase): ≤ 15 min
Ac-WDNEWRKTW-NH2 [Peptide 2]	29 ± 7%	
CC(=O)NC(C)(C)C(=O)N[C@@H](Cc1c[nH]c2ccccc12)C(=O)N[C@@H](CC(=O)O)C(=O)N[C@@H](CC(N)=O)C(=O)NC(C)(C)C(=O)N[C@@H](Cc1c[nH]c2ccccc12)C(=O)N[C@@H](CCCNC(=N)N)C(=O)N[C@@H](CCCCN)C(=O)NC(C)(C)C(=O)N[C@@H](Cc1c[nH]c2ccccc12)C(N)=O [Peptide 4, Ac-Aib-Trp- Asp-Asn-Aib-Trp- Arg -Lys-Aib-Trp-amide] (Ac-[Aib]WDN[Aib]WRK[Aib]W-NH2)	40 ± 10%	
VEGF165: VEGF-A isoform VEGF165, unlabeled, employed as reference compound in the VEGFR-1 assay		IC50 [2]: 0.146 nM
CC[C@H](C)[C@H](NC(=O)C(C)(C)NC(C)=O)C(=O)N[C@@H](CC(=O)O)C(=O)N[C@@H](CC(N)=O)C(=O)NC(C)(C)C(=O)N[C@@H](Cc1c[nH]c2ccccc12)C(=O)N[C@@H](CCCNC(=N)N)C(=O)N[C@@H](CCCCN)C(=O)NC(C)(C)C(=O)N[C@@H](CCC(N)=O)C(N)=O [Peptide 3, Ac-Aib-Ile-Asp-As n -Aib-Trp-Arg -Lys-Aib-Gln-amide] (Ac-[Aib]IDN[Aib]WRK[Aib]Q-NH2)	86 ± 1%	
